According to patent US20100216751A1 (priority 2007, published 2010):
Where “and” joins values, the source holds several entries; their conditions need not be identical. Equal entries are not always repeated.

How the values were obtained:
[1] = Solubility of bevirimat and bevirimat dimeglumine in single vehicles; conditions: in 100% water, 100% saline, 100% dextrose, 100% PEG 400, and 25% Poloxamer 188
[2] = Pharmacokinetic evaluation of bevirimat HPβCD formulation, intravenous, male Cynomolgus monkeys
Experimental: Six male Cynomolgus monkeys having an initial body weight of about 3.5 to about 4.5 kg are allowed 7 days to acclimate to their individual housing units. Monkeys are supplied with water and a commercial diet ad libitum prior to the study initiation. Food is withheld from the monkeys for a minimum of twelve hours before the study and during the study until four hours postdose when food is returned. Water is supplied ad libitum.
Test formulations are administered to the monkeys at time 0 on appropriate days. Test formulations will be dosed orally via oral gavage or intravenously.
Samples are drawn at the frequencies indicated below. Each blood sample (0.5 mL) is collected from the monkey's saphenous vein via a butterfly catheter and placed into a chilled polypropylene tube containing sodium heparin as the anticoagulant. Blood samples are centrifuged at a temperature of 4° C. at a speed of 3,000 rpm for 15 minutes. All samples are maintained chilled throughout processing. Plasma is collected after centrifugation, pipetted into a 2-mL polypropylene microtube, and frozen on dry-ice pending analytical evaluation.

[3] = 2.5 mg FAE/mL in 10% HPβCD+3% Mannitol in water, 10 mg FAE/monkey intravenous injection, monkeys 115,116,120,AVG
[4] = male, cynomolgus monkey, plasma, iv, 10 mg

With `C=C(C)[C@@H]1CC[C@]2(C(=O)O)CC[C@]3(C)[C@H](CC[C@@H]4[C@@]5(C)CC[C@H](OC(=O)CC(C)(C)C(=O)O)C(C)(C)[C@@H]5CC[C@]43C)[C@@H]12` [Bevirimat, 3-O-(3′,3′-dimethylsuccinyl)betulinic acid] the “solubility (in words)” value [1] was “poorly soluble”, the AUCall [2, 3] was 81549 ng·h/mL and 84743 ng·h/mL and the C0 [2, 3] was 54673 ng/mL and 39400 ng/mL. The CL [2, 3] was 0.383 mL/min/kg and 0.533 mL/min/kg and 0.417 mL/min/kg, the “Dnzed AUCall” value [2, 3] was 46879 ng·h/mL/mg/kg and 41590 ng·h/mL/mg/kg and 31505 ng·h/mL/mg/kg and 39991 ng·h/mL/mg/kg and the t1/2 [2, 3] was 24.7 h and 15.5 h and 18.3 h. For the same compound, the Plasma Concentration ([2]; 0.033 hr, 2.5 mg FAE/mL in 10% HPβCD+3% Mannitol in water, 10 mg FAE/monkey intravenous injection, monkeys 115,116,120,AVG) was 39400 ng/mL, the Plasma Concentration ([2]; 0.25 hr, 2.5 mg FAE/mL in 10% HPβCD+3% Mannitol in water, 10 mg FAE/monkey intravenous injection, monkeys 115,116,120,AVG) was 41600 ng/mL and 23100 ng/mL and 32333 ng/mL and the Plasma Concentration ([2]; 0.50 hr, 2.5 mg FAE/mL in 10% HPβCD+3% Mannitol in water, 10 mg FAE/monkey intravenous injection, monkeys 115,116,120,AVG) was 19800 ng/mL and 14800 ng/mL and 19967 ng/mL. For the same compound, the Plasma Concentration ([2]; 1.0 hr, 2.5 mg FAE/mL in 10% HPβCD+3% Mannitol in water, 10 mg FAE/monkey intravenous injection, monkeys 115,116,120,AVG) was 20200 ng/mL and 11700 ng/mL and 18233 ng/mL, the Plasma Concentration ([2]; 12 hr, 2.5 mg FAE/mL in 10% HPβCD+3% Mannitol in water, 10 mg FAE/monkey intravenous injection, monkeys 115,116,120,AVG) was 384 ng/mL and 404 ng/mL and 517 ng/mL and the Plasma Concentration ([2]; 24 hr, 2.5 mg FAE/mL in 10% HPβCD+3% Mannitol in water, 10 mg FAE/monkey intravenous injection, monkeys 115,116,120,AVG) was 367 ng/mL and 245 ng/mL and 320 ng/mL. The Plasma Concentration ([2]; 48 hr, 2.5 mg FAE/mL in 10% HPβCD+3% Mannitol in water, 10 mg FAE/monkey intravenous injection, monkeys 115,116,120,AVG) was 148 ng/mL and 81.0 ng/mL and 121 ng/mL, the Plasma Concentration ([2]; 72 hr, 2.5 mg FAE/mL in 10% HPβCD+3% Mannitol in water, 10 mg FAE/monkey intravenous injection, monkeys 115,116,120,AVG, BLOQ=below 50 ng/mL) was “BLOQ” and the concentration at 0.033 hr ([2]; male, cynomolgus monkey, in vivo, iv, 10 mg FAE/monkey, Plasma concentration, 0.033 hr, 2.5 mg FAE/mL in 10% HPβCD+3% Mannitol in water, 10 mg FAE/monkey intravenous injection, monkeys 115,116,120,AVG) was 50600 ng/mL. The concentration at 0.25 hr ([2]; male, cynomolgus monkey, in vivo, iv, 10 mg FAE/monkey, Plasma concentration, 0.25 hr, 2.5 mg FAE/mL in 10% HPβCD+3% Mannitol in water, 10 mg FAE/monkey intravenous injection, monkeys 115,116,120,AVG) was 32300 ng/mL, the concentration at 0.5 hr ([2]; male, cynomolgus monkey, in vivo, iv, 10 mg FAE/monkey, Plasma concentration, 0.50 hr, 2.5 mg FAE/mL in 10% HPβCD+3% Mannitol in water, 10 mg FAE/monkey intravenous injection, monkeys 115,116,120,AVG) was 25300 ng/mL and the concentration at 1 hr ([2]; male, cynomolgus monkey, in vivo, iv, 10 mg FAE/monkey, Plasma concentration, 1.0 hr, 2.5 mg FAE/mL in 10% HPβCD+3% Mannitol in water, 10 mg FAE/monkey intravenous injection, monkeys 115,116,120,AVG) was 22800 ng/mL. It also gave a concentration at 12 hr ([2]; male, cynomolgus monkey, in vivo, iv, 10 mg FAE/monkey, Plasma concentration, 12 hr, 2.5 mg FAE/mL in 10% HPβCD+3% Mannitol in water, 10 mg FAE/monkey intravenous injection, monkeys 115,116,120,AVG) of 762 ng/mL, a concentration at 24 hr ([2]; male, cynomolgus monkey, in vivo, iv, 10 mg FAE/monkey, Plasma concentration, 24 hr, 2.5 mg FAE/mL in 10% HPβCD+3% Mannitol in water, 10 mg FAE/monkey intravenous injection, monkeys 115,116,120,AVG) of 347 ng/mL and a concentration at 48 hr ([2]; male, cynomolgus monkey, in vivo, iv, 10 mg FAE/monkey, Plasma concentration, 48 hr, 2.5 mg FAE/mL in 10% HPβCD+3% Mannitol in water, 10 mg FAE/monkey intravenous injection, monkeys 115,116,120,AVG) of 134 ng/mL. It also gave an AUC ([2]; male, cynomolgus monkey, in vivo, iv, 10 mg, AUCall, 2.5 mg FAE/mL in 10% HPβCD+3% Mannitol in water, 10 mg FAE/monkey intravenous injection, monkeys 115,116,120,AVG) of 114000 ng·h/mL, a C0 ([2]; male, cynomolgus monkey, in vivo, iv, 10 mg, C0, 2.5 mg FAE/mL in 10% HPβCD+3% Mannitol in water, 10 mg FAE/monkey intravenous injection, monkeys 115,116,120,AVG) of 54200 ng/mL and a half-life ([2]; male, cynomolgus monkey, in vivo, iv, 10 mg, t1/2, 2.5 mg FAE/mL in 10% HPβCD+3% Mannitol in water, 10 mg FAE/monkey intravenous injection, monkeys 115,116,120,AVG) of 14.7 h. It also gave an AUC [2, 4] of 58300 ng·h/mL, a C0 [2, 4] of 49400 ng/mL and a Tmax [2, 4] of 0 h. For the same compound, the clearance ([2]; male, cynomolgus monkey, plasma, iv, 10 mg, CL, 2.5 mg FAE/mL in 10% HPβCD+3% Mannitol in water, 10 mg FAE/monkey intravenous injection, monkeys 115,116,120,AVG) was 0.333 mL/min/kg.
